Results: US20260306502A1, “MITOCHONDRIAL UNCOUPLERS FOR TREATMENT OF METABOLIC DISEASES AND CANCER” (Mito Biopharma, LLC, priority 2022, published 2026)

Tested on: TGF-β signaling pathway
Assay: TGF-β signaling pathway activation (Smad2/3 phosphorylation) in T cells (Jurkat, primary mouse CD8+), immunoblotting
Assay type: cell-based, human Jurkat cells and mouse primary T-cells
Conditions: Jurkat and mouse primary T-cells, 6 hours, FIG. 19
Experimental: Jurkat cells (a human T-cell cancer cell line) and the primary mouse CD8+ cells (T-cells) were tested. The cells were treated with TGF-β (10 ng/ml) alone, or TGF-β (10 ng/ml) plus compound at various concentrations (e.g. 0.5, 1.0, 2.0 μM), or treated with vehicle (control), for 6 hours. The cells were then harvested, and cell lysates were subjected to immunoblotting analyses with antibodies against Smad2/3, phosphorylated Smad2/3, and GAPDH.

Q: COCCOCc1cc(C(F)(F)F)cc2sc(NC(=O)c3cc(Cl)cc(CN4C[C@@H](C)O[C@@H](C)C4)c3O)nc12 [Compound 64, 5-chloro-3-((cis-2,6-dimethylmorpholino)methyl)-2-hydroxy-N-(4-((2-methoxyethoxy)methyl)-6-(trifluoromethyl)benzo[d]thiazol-2-yl)benzamide] was tested. Which “effect on TGF-β signaling pathway activation in T cells” value did it give?
A: Its value is “effectively blocks TGF-β signaling pathway activation in T cells”.
